Three compounds from EP1806348A2, “Pyrido (2,3-D)Pyrimidines as inhibitors of cellular proliferation” (Warner-Lambert Company LLC, priority 1997, dated 1998) can be followed below.

Molecules are shown by their SMILES.

The nature of data set [1]: Plasma levels in mice after dosing. Type of data set: in vivo, nude mice. As to conditions: at 30 minutes following dosing. As for the experimental part:
For example, the compound of Example 60 was administered orally at 5 mg/kg to mice, and plasma levels of about 200 nM were measured at 30 minutes following dosing. The compound was also administered intraperitoneally at 12 mg/kg and produced a peak plasma concentration of 10,000 nM at 30 minutes following dosing.

The subject of data set [2] is MCF-7 human mammary tumor xenografts. Description: MCF-7 tumor xenograft growth inhibition in mice. The class given is in vivo, female nude mice. As to conditions: doses of 5 to 20 mg/kg, schedule q12h × 2; days 1-14.
In a further data set the target is cdc2/cyclinB (Homo sapiens, UniProt P06493). Description: Cyclin-dependent kinase assay (cdc2/cyclinB). Type of data set: biochemical. As to conditions: Table 1; read-out: cdk1/B IC50. On the procedure: (§1) All components except the ATP were added to the wells, and the plate was placed on a plate mixer for 2 minutes. […] The reaction was terminated by addition of 0.1 mL of 20% TCA. The plate was kept at 4°C for at least 1 hour to allow the substrate to precipitate. The wells were then washed five times with 0.2 mL of 10% TCA and ^32P incorporation determined with a beta plate counter (Wallac Inc., Gaithersburg, MD).
Sequence of cdc2/cyclinB (P06493 whole entry): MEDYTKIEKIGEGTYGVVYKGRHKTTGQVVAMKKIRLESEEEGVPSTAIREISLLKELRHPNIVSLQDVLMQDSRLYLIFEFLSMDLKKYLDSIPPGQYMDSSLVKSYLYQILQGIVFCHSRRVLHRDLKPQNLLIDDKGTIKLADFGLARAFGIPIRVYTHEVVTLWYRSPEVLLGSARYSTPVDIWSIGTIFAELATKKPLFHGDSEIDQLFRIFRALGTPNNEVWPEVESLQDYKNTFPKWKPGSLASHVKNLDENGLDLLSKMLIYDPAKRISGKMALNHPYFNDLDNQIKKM
Sequence of cdc2/cyclinB (P14635 whole entry, further chain): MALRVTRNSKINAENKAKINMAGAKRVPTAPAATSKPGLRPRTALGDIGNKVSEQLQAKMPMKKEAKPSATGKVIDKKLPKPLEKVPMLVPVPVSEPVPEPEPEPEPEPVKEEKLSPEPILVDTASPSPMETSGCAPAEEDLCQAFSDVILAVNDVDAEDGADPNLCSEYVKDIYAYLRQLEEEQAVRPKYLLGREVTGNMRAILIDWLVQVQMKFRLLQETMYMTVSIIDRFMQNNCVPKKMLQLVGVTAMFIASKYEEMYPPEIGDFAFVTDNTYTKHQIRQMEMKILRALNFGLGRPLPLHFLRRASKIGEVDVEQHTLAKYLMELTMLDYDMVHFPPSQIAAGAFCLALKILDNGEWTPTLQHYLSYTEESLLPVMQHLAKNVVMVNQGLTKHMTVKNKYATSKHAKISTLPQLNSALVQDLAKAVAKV

The next data set deals with cdk4/D (Homo sapiens, UniProt P11802). Briefly: Cyclin-dependent kinase 4 (cdk4) enzyme assay, 32P incorporation into retinoblastoma. Type of data set: biochemical. As to conditions: Table 1; 25 µM ATP, retinoblastoma substrate. On the procedure:
A typical assay, for instance, measures inhibitory activity against the cyclin D dependent kinase 4 enzyme (cdk4/D). […] The cdk 4 assay was carried out as follows.
All components except the ATP were added to the wells, and the plate was placed on a plate mixer for 2 minutes. […] The reaction was terminated by addition of 0.1 mL of 20% trichloroacetic acid (TCA). The plate was kept at 4°C for at least 1 hour to allow the substrate to precipitate. The wells were then washed five times with 0.2 mL of 10% TCA and ^32P incorporation was determined with a beta plate counter (Wallac Inc., Gaithersburg, MD).

In a further data set the target is c-Src (Homo sapiens, UniProt P12931). Description: c-Src protein kinase assay. Type of data set: biochemical. As to conditions: Table 5. On the procedure:
C-Src kinase was purified from baculovirus infected insect cell lysates using an antipeptide monoclonal antibody directed against the N-terminal amino acids (amino acids 2-17) of c-Src. The antibody, covalently linked to 0.65 µm latex beads, was added to a suspension of insect cell lysis buffer comprised of 150 mM NaCl, 50 mM Tris pH 7.5, 1 mM DTT, 1% NP-40,2 mM EGTA, 1 mM sodium vanadate, 1 mM PMSF, 1 µg/mL each of leupeptin, pepstatin, and aprotinin. Insect cell lysate containing c-Src protein was incubated with these beads for 3 to 4 hours at 4°C with rotation. At the end of the lysate incubation, the beads were rinsed three times in lysis buffer, resuspended in lysis buffer containing 10% glycerol, and frozen. These latex beads were thawed, rinsed three times in assay buffer (40 mM Tris, pH 7.5, […]) and suspended in the same buffer. In a Millipore 96-well plate with a 0.65 µm polyvinylidine membrane bottom were added the reaction components: 10 µL c-Src beads, 10 µL of 2.5 mg/mL poly GluTyr substrate, 5 µM ATP containing 0.2 µCi labeled ^32P-ATP, 5 µL DMSO containing inhibitors or as a solvent control, and buffer to make the final volume 125 µL. The reaction was started at room temperature by addition of the ATP and quenched 10 minutes later by the addition of 125 µL of 30% TCA, 0.1 M sodium pyrophosphate for 5 minutes on ice. […] The filters were then punched, counted in a liquid scintillation counter, and the data examined for inhibitory activity in comparison to a known inhibitor such as erbstatin. […]

A further data set deals with cdk2/cyclinA (Homo sapiens, UniProt P24941). Briefly: Cyclin-dependent kinase assay (cdk2/cyclinA). The class given is biochemical. As to conditions: Table 1. As for the experimental part: as §1
Another data set concerns the target cdk2/cyclinE (Homo sapiens, UniProt P24941). Briefly: Cyclin-dependent kinase assay (cdk2/cyclinE). Type of data set: biochemical. As to conditions: Table 1; read-out: cdk2/E IC50. As for the experimental part:
as §1

In another data set the target is cdk6/D2 (Homo sapiens, UniProt Q00534). Description: cdk6/D2 enzyme assay, similar to cdk4 assay. As to conditions: read-out: IC50 against cdk6/D2. The class given is biochemical. On the procedure:
(§2) The total volume was 0.1 mL containing a final concentration of 20 mM TRIS (tris[hydroxymethyl]aminomethane), at pH 7.4, 50 mM NaCl, 1 mM dithiothreitol, 10 mM MgCl2, 25 µM ATP containing 0.25 µCi of [^32P]ATP, 20 ng of cdk4, 1 µg of retinoblastoma, and appropriate dilutions of a compound of the present invention. All components except the ATP were added to the wells, and the plate was placed on a plate mixer for 2 minutes. The reaction was started by adding [^32P]ATP and the plate was incubated at 25°C for 15 minutes. The reaction was terminated by addition of 0.1 mL of 20% trichloroacetic acid (TCA). The plate was kept at 4°C for at least 1 hour to allow the substrate to precipitate. The wells were then washed five times with 0.2 mL of 10% TCA and ^32P incorporation was determined with a beta plate counter (Wallac Inc., Gaithersburg, MD).
(§3) Several of the invention compounds have also shown good inhibitory activity against cdk6/D2 and cdk6/D3 enzymes. These assays are carried out in a manner similar to that described above for cdk4, by simply employing the appropriate cdk6 kinase enzyme.

A further data set deals with cdk6/D3 (Homo sapiens, UniProt Q00534). Description: cdk6/D3 enzyme assay, similar to cdk4 assay. Type of data set: biochemical. As to conditions: read-out: IC50 against cdk6/D3. On the procedure: as §2, §3
Sequence of cdk6/D3 (P30281 whole entry): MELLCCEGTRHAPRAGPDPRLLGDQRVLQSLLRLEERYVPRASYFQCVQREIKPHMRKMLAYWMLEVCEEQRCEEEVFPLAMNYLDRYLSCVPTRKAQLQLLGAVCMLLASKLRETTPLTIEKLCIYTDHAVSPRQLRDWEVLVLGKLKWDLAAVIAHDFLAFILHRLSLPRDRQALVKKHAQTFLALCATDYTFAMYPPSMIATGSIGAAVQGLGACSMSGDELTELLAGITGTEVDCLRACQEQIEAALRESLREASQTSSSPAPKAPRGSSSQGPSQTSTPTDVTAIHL
Sequence of cdk6/D3 (Q00534 whole entry): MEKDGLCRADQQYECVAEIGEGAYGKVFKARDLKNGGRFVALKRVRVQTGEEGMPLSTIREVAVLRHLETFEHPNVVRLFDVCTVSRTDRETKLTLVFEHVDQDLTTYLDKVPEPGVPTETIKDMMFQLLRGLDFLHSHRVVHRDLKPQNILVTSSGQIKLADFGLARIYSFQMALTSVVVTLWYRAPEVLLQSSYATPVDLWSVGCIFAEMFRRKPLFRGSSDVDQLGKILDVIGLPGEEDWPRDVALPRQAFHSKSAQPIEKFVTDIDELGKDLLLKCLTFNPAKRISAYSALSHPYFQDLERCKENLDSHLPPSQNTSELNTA

Sequence of c-Src (P12931 whole entry, the tested form may be a part): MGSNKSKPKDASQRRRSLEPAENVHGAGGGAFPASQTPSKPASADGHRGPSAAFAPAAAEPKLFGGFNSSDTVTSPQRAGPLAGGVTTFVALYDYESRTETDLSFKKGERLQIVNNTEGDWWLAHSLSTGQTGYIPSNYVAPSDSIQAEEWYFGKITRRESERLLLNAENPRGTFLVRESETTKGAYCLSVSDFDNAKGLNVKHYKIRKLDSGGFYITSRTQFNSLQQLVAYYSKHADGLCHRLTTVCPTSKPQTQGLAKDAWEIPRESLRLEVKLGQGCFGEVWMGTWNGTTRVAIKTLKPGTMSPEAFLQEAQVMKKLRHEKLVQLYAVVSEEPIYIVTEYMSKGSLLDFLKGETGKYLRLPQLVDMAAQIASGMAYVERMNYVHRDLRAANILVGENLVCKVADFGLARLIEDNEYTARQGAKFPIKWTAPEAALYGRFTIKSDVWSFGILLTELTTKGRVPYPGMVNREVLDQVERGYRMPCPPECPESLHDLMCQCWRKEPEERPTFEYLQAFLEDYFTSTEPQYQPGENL
Sequence of cdk4/D (P11802 whole entry): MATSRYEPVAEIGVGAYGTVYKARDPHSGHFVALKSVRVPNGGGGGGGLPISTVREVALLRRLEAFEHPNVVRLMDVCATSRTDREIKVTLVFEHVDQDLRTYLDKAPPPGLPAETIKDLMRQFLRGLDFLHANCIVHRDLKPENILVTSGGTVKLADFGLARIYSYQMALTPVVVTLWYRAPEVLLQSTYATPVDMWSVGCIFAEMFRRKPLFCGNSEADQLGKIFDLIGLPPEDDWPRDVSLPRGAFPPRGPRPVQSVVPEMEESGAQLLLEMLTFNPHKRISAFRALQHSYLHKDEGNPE
Sequence of cdk4/D (P24385 whole entry, further chain): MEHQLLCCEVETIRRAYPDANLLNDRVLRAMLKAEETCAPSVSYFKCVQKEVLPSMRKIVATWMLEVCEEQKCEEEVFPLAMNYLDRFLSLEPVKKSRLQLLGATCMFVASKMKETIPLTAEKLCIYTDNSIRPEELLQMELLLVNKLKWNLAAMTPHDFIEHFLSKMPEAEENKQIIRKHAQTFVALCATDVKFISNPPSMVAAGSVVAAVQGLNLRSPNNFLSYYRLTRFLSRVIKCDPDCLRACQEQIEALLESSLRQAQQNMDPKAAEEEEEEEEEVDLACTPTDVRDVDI
Sequence of cdk6/D2 (Q00534 whole entry): as the sequence (Q00534 whole entry) above
Sequence of cdk6/D2 (P30279 whole entry, further chain): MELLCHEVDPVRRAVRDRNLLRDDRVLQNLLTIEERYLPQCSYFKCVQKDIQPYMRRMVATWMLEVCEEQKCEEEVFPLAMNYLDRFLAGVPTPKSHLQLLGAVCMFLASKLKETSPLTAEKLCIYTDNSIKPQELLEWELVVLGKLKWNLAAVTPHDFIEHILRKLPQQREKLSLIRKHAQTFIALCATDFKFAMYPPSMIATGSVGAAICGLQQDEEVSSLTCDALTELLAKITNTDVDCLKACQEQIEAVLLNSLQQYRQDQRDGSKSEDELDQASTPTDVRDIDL

Turning to `CC(C)n1c(=O)ccc2cnc(Nc3ccc(N4CCN(C)CC4)cc3)nc21` [Example 60, 8-Isopropyl-2-[4-(4-methylpiperazin-1-yl)-phenylamino]-8H-pyrido[2,3-d]pyrimidin-7-one], the peak plasma concentration in data set [1] (intraperitoneally at 12 mg/kg) is given as 10,000 nM. The concentration at 30 min in [1] (nude, mouse, plasma, po, mice, orally at 5 mg/kg) is ~200 nM. In addition, the tumor growth inhibitions result in [2] was “statistically insignificant tumor growth inhibitions”. For the same compound, the IC50 was 675 nM on cdc2/cyclinB; 32 nM against cdk4/D; 890 nM on c-Src; 58 nM at cdk2/cyclinA; 270 nM on cdk2/cyclinE.
Consider `CCN(CC)CCOc1ccc(Nc2ncc3ccc(=O)n(C(C)C)c3n2)cc1` [Example 59, 2-[4-(2-Diethylaminoethoxy)-phenylamino]-8-isopropyl-8H-pyrido[2,3-d]pyrimidin-7-one], for which the IC50 on cdc2/cyclinB worked out at 1240 nM; at cdk4/D, 45 nM; at c-Src, 4430 nM; at cdk2/cyclinA, 80 nM; on cdk2/cyclinE it was 800 nM.
Take `O=c1ccc2cnc(Nc3ccc(N4CCC(CCCO)CC4)cc3)nc2n1C1CC2CCC1C2` (stereo not drawn) [Example 214, 8-Bicyclo[2.2.1]hept-2-yl-2-{4-[4-(3-hydroxy-propyl)-piperidin-1-yl]-phenylamino}-8H-pyrido[2,3-d]pyrimidin-7-one]: the IC50 on cdk6/D2 worked out at 7.1 nM; at cdk6/D3 it was 13 nM.
